Earlier results on one molecule are cited in US20210244720A1, “Therapeutic Tyrosine Kinase Inhibitors for Relapsing Multiple Sclerosis (RMS)” (Genzyme Corporation, priority 2020, published 2021).

The structures appear in SMILES notation.

The test system of the data set is RMS patients. The conditions noted are these: from Week 12; cited from earlier work.

Regarding `C=CC(=O)N1CCC(CNc2ncnc(N)c2-c2ccc(Oc3ccccc3)cc2)CC1` [evobrutinib], the “reduction of new Gd-enhancing T1 lesions” value was “meaningful reduction”.
